Assay results taken from ChEMBL document CHEMBL1141094, “Bisphosphonate inhibition of the exopolyphosphatase activity of the Trypanosoma brucei soluble vacuolar pyrophosphatase” (J Med Chem, 2005).

Assays:
KB = test: Dose to inhibit the growth of human KB carcinoma cell line; format: functional; details: read-out: ED50 (the source's name)
[1] = molecular target: T1, Vacuolar-type proton translocating pyrophosphatase 1 (Trypanosoma brucei) (UniProt Q8MTZ4); test: Ratio of ED50 against KB cell line to that of IC50 of TbVSP1; format: functional, cell-based
T1 sequence (whole entry): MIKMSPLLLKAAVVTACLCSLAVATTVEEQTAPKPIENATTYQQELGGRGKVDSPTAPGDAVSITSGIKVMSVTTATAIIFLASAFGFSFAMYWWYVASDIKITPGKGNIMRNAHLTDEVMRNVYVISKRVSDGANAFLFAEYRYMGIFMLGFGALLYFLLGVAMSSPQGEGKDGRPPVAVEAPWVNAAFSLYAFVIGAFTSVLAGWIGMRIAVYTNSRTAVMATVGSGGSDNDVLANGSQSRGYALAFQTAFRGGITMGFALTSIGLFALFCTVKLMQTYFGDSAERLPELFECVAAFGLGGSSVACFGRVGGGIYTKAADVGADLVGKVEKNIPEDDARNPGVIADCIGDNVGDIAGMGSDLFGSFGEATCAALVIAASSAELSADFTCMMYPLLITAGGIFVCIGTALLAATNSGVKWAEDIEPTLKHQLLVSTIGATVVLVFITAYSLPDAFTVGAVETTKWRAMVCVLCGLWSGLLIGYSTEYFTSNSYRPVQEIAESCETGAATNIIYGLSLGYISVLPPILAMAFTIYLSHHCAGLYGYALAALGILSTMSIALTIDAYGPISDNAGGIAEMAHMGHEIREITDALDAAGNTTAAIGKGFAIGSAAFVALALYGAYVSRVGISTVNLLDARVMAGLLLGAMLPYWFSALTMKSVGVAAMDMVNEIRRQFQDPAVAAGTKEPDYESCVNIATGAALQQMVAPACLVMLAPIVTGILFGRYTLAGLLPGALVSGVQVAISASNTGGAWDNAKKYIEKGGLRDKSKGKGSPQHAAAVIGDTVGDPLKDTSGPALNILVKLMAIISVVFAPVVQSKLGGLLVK

Row | Structure (SMILES) | EC50 (KB) [µM] | TI [1]
1 | CC(C)c1cccc(C(C)C)c1NC(P(=O)(O)O)P(=O)(O)O | 713 | 28
2 | CCCCNC(P(=O)(O)O)P(=O)(O)O [(BUTYLAMINO)METHYLENEDIPHOSPHONIC ACID] | 212 | 4.9
3 | CCCCOc1ccc(NC(P(=O)(O)O)P(=O)(O)O)cc1 | 210 | 5.3
4 | O=P(O)(O)C(O)(Cc1cccc(Cl)c1)P(=O)(O)O | 283 | 38
5 | CCc1cccc(NC(P(=O)(O)O)P(=O)(O)O)c1 | 1020 | 423
6 | Cc1cccc(CC(O)(P(=O)(O)O)P(=O)(O)O)c1 | 0.9 | 0.04
7 | O=P(O)(O)C(O)(Cc1cccc(F)c1)P(=O)(O)O | 225 | 20
8 | CC(C)c1cccc(NC(P(=O)(O)O)P(=O)(O)O)c1 | 771 | 79
9 | O=P(O)(O)C(Nc1cccc(Cc2ccccc2)c1)P(=O)(O)O | 645 | 14
10 | CCCNC(P(=O)(O)O)P(=O)(O)O [(PROPYLAMINO)METHYLENEDIPHOSPHONIC ACID] | 499 | 10
11 | CN(CCOc1ccccc1)CCC(O)(P(=O)(O)O)P(=O)(O)O | 312 | 1
12 | Nc1ccc(CC(O)(P(=O)(O)O)P(=O)(O)O)cc1 | 218 | 4
13 | CCc1cccc(NC(P(=O)(O)O)P(=O)(O)O)n1 | 847 | 15
14 | CCCCCCCCCCCCCCCC(O)(P(=O)(O)O)P(=O)(O)O | 729 | 2.1
15 | CC(C)(C)c1cc(NC(P(=O)(O)O)P(=O)(O)O)cc(C(C)(C)C)c1 | 634 | 39
16 | O=P(O)(O)C(Nc1ccc(-c2ccccc2)cc1)P(=O)(O)O | 495 | 1.4
17 | CCCCCCCCCNC(P(=O)(O)O)P(=O)(O)O [(NONYLAMINO)METHYLENEDIPHOSPHONIC ACID] | 919 | 16

Row | Structure (SMILES) | EC50 (KB) [µM] | TI [1]
18 | O=P(O)(O)C(O)(Cc1cccc(C(F)(F)F)c1)P(=O)(O)O | 109 | 6.3
19 | O=P(O)(O)C(Nc1ccc2c(c1)CCC2)P(=O)(O)O | 976 | 101
20 | O=P(O)(O)C(CNc1ccccn1)P(=O)(O)O | 144 | 0.4
21 | O=[N+]([O-])c1cccc(CC(O)(P(=O)(O)O)P(=O)(O)O)c1 | 727 | 44
22 | CCCCC(O)(P(=O)(O)O)P(=O)(O)O | 1040 | 82
23 | CCc1ccc(NC(P(=O)(O)O)P(=O)(O)O)cc1 | 257 | 21
24 | O=P(O)(O)C(NC1CCCCCC1)P(=O)(O)O [INCADRONIC ACID] | 166 | 3.7
25 | O=P(O)(O)C(Nc1cccc(-c2ccccc2)c1)P(=O)(O)O | 749 | 174
26 | O=P(O)(O)C(Nc1ccc(Cl)cc1Cl)P(=O)(O)O [2,4-DICHLOROPHENYLAMINOMETHYLENEBISPHOSPHONIC ACID] | 728 | 169
27 | O=P(O)(O)C(O)(Cc1cccnc1)P(=O)(O)O [RISEDRONIC ACID] | 255 | 0.4
28 | O=P(O)(O)C(O)(Cc1cccc2ccccc12)P(=O)(O)O | 847 | 75
29 | O=P(O)(O)C(O)(Cn1ccnc1)P(=O)(O)O [ZOLEDRONIC ACID] | 63.7 | 0.3
30 | O=P(O)(O)C(O)(Cc1cccc(Br)c1)P(=O)(O)O | 228 | 25
31 | CCn1c2ccccc2c2ccc(NC(P(=O)(O)O)P(=O)(O)O)cc21 | 710 | 19
32 | CCCCCC(O)(P(=O)(O)O)P(=O)(O)O | 107 | 10
33 | CCCCCCCCCC(O)(P(=O)(O)O)P(=O)(O)O | 892 | 2.5
34 | CCCCCCCCC(O)(P(=O)(O)O)P(=O)(O)O | 64 | 1.3
